US6737383B1, “Herbicidal oxadiazolidines” (priority 1999, dated 2004)

Columns and labels:
[1] = test system: bamyardgrass; experiment: Test B flood test barnyardgrass; assay type: in vivo, Echinochloa crus-galli
Method in brief: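 Each value is a visual injury score relative to controls, with 10 meaning complete control and 0 no effect. Evaluation took place twelve to sixteen days after the 2-leaf-stage plants were treated and kept in the greenhouse.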

[2] = test system: blackgrass; experiment: Test E blackgrass; assay type: in vivo, Alopecurus myosuroides; settings: Preemergence; for Blackgrass plant response rating (0 to 100 scale): Rate 250 g/ha
[3] = test system: winter wheat; experiment: Test E winter wheat; assay type: in vivo, Triticum aestivum; settings: Preemergence; for Wheat (winter) plant response rating (0 to 100 scale): Rate 250 g/ha
[4] = test system: green foxtail; experiment: Test E green foxtail; assay type: in vivo, Setaria viridis; settings: Preemergence; for Green foxtail plant response rating (0 to 100 scale): Rate 250 g/ha
[5] = test system: winter wheat; experiment: Test E winter wheat; assay type: in vivo, Triticum aestivum; settings: Postemergence; for Wheat (winter) plant response rating: Rate 250 g/ha
Method in brief: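 For postemergence, application to 1- to 4-leaf plants growing in a 60:40 sandy loam–potting mix substrate. Formulation: non-phytotoxic solvent mixture plus surfactant. Untreated controls served as the reference for the visual rating after ~21–28 days.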

[6] = test system: wild oat; experiment: Test E wild oat; assay type: in vivo, Avena fatua; settings: Preemergence; for Wild oat plant response rating (0 to 100 scale): Rate 250 g/ha
[7] = test system: soybean; experiment: Test B pre/postemergence soybean; assay type: in vivo, Glycine max
Method in brief: (§1)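 Response is a visual 0-to-10 score relative to untreated plants, where 0 means no effect and 10 means complete control, taken twelve to sixteen days after application. Treatments went onto soil at planting and onto foliage of 1- to 4-leaf plants, using a surfactant-containing non-phytotoxic solvent.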

[8] = test system: wild oat; experiment: Test B pre/postemergence wild oat; assay type: in vivo, Avena fatua
Method in brief: as §1

[9] = test system: winter barley; experiment: Test E winter barley; assay type: in vivo, Hordeum vulgare; settings: Preemergence; for Barley (winter) plant response rating (0 to 100 scale): Rate 250 g/ha
[10] = test system: bedstraw; experiment: Test B pre/postemergence bedstraw; assay type: in vivo, Galium aparine
Method in brief: as §1

[11] = test system: Italian ryegrass; experiment: Test E Italian ryegrass; assay type: in vivo, Lolium multiflorum; settings: Preemergence; for I. Ryegrass plant response rating (0 to 100 scale): Rate 250 g/ha
[12] = Rate 62 g/ha, headed Pre-emergence (flood test species), scale 0 to 10 (0 no effect, 10 complete control)
[13] = Rate 125 g/ha, Pre-emergence, flood test species, scale 0 to 10 where 0 is no effect and 10 is complete control
[14] = Rate 250 g/ha, Pre-emergence, flood-test species, scale 0 to 10, 0 is no effect, 10 is complete control
[15] = Rate 500 g/ha, Pre-emergence, flood test species, scale 0 to 10 (0 no effect, 10 complete control)
[16] = Rate 500 g/ha, 0 to 100 scale where 0 is no effect and 100 is complete control
[17] = Rate 1000 g/ha, 0 to 100 scale, 0 no effect, 100 complete control
[18] = 0 to 100 scale where 0 is no effect and 100 is complete control
[19] = Rate 500 g/ha, 0 to 100 scale, 0 is no effect, 100 is complete control
[20] = Preemergence, Rate 62 g/ha, scale of 0 to 10 where 0 is no effect and 10 is complete control
[21] = Preemergence, Rate 250 g/ha, scale of 0 to 10 where 0 is no effect and 10 is complete control
[22] = Preemergence, Rate 500 g/ha, scale of 0 to 10 where 0 is no effect and 10 is complete control
[23] = Rate 62 g/ha, Postemergence, scale of 0 to 10 where 0 is no effect and 10 is complete control
[24] = Rate 125 g/ha, Postemergence, scale 0 to 10
[25] = Rate 125 g/ha, Preemergence, scale of 0 to 10 where 0 is no effect and 10 is complete control
[26] = Rate 500 g/ha, Postemergence, scale 0 to 10, 0 no effect, 10 complete control
[27] = Rate 31 g/ha, 0 to 100 scale, 0 no effect, 100 complete control
[28] = Rate 62 g/ha, 0 to 100 scale, 0 no effect, 100 complete control
[29] = Rate 125 g/ha, 0 to 100 scale (0 no effect, 100 complete control)
[30] = Rate 125 g/ha, Postemergence, scale of 0 to 10 where 0 is no effect and 10 is complete control
[31] = Rate 250 g/ha, Postemergence, scale of 0 to 10 where 0 is no effect and 10 is complete control

Cc1nc(C)c(Cn2c(=O)on(C(=O)N(c3ccc(F)cc3F)C(C)C)c2=O)s1 [Compound 233]
Barnyardgrass plant response rating [1, 12]: 0 | Barnyardgrass plant response rating [1, 13]: 0 | Barnyardgrass plant response rating [1, 14]: 0 | Barnyardgrass plant response rating [1, 15]: 0 | Blackgrass plant response rating (0 to 100 scale) [2]: 50 | Plant response rating, Blackgrass [2, 16]: 60 | Plant response rating, Blackgrass [2, 17]: 85 | Wheat (winter) plant response rating (0 to 100 scale) [3]: 50 | Plant response rating, Wheat (winter) [3, 16]: 50 | Plant response rating, Wheat (winter) [3, 17]: 60 | Green foxtail plant response rating (0 to 100 scale) [4]: 100 | Plant response rating, Green foxtail [4, 16]: 100 | Plant response rating, Green foxtail [4, 17]: 100 | Plant response rating, Wheat (winter) ([5]; Rate 1000 g/ha, 0 to 100 scale where 0 is no effect and 100 is complete control): 60 | Wheat (winter) plant response rating [5, 18]: 50 | Plant response rating, Wheat (winter) [5, 19]: 55 | Wild oat plant response rating (0 to 100 scale) [6]: 55 | Plant response rating, Wild oat [6, 16]: 60 | Plant response rating, Wild oat [6, 17]: 60 | Soybean plant response rating [7, 20]: 0 | Soybean plant response rating [7, 21]: 0 | Plant response rating, Soybean [7, 22]: 0 | Soybean plant response rating [7, 23]: 3 | Soybean plant response rating [7, 24]: 3 | Soybean plant response rating [7, 25]: 0 | Plant response rating (0 to 10; 0 is no effect, 10 is complete control), Soybean ([7]; Rate 250 g/ha, Postemergence): 3 | Soybean plant response rating [7, 26]: 5 | Wild oats plant response rating [8, 20]: 0 | Wild oats plant response rating [8, 21]: 2 | Plant response rating, Wild oats [8, 22]: 6 | Wild oats plant response rating [8, 23]: 0 | Wild oats plant response rating [8, 24]: 0 | Wild oats plant response rating [8, 25]: 1 | Plant response rating (0 to 10; 0 is no effect, 10 is complete control), Wild oats ([8]; Rate 250 g/ha, Postemergence): 2 | Wild oats plant response rating [8, 26]: 2 | Barley (winter) plant response rating (0 to 100 scale) [9]: 30 | Plant response rating, Barley (winter) [9, 16]: 50 | Plant response rating, Barley (winter) [9, 17]: 60 | Bedstraw plant response rating [10, 20]: 0 | Bedstraw plant response rating [10, 21]: 0 | Plant response rating, Bedstraw [10, 22]: 0 | Bedstraw plant response rating [10, 23]: 0 | Bedstraw plant response rating [10, 24]: 0 | Bedstraw plant response rating [10, 25]: 0 | Plant response rating (0 to 10; 0 is no effect, 10 is complete control), Bedstraw ([10]; Rate 250 g/ha, Postemergence): 3 | Bedstraw plant response rating [10, 26]: 5 | I. Ryegrass plant response rating (0 to 100 scale) [11]: 40 | Plant response rating, I. Ryegrass [11, 16]: 50 | Plant response rating, I. Ryegrass [11, 17]: 60

[2H]C([2H])([2H])n1c(=O)on(C(=O)N(c2ccc(F)cc2)C(C)C)c1=O [Compound 245]
Barnyardgrass plant response rating [1, 12]: 0 | Barnyardgrass plant response rating [1, 13]: 0 | Barnyardgrass plant response rating [1, 14]: 0 | Barnyardgrass plant response rating [1, 15]: 0 | Plant response rating, Blackgrass [2, 27]: 60 | Plant response rating, Blackgrass [2, 28]: 60 | Plant response rating, Blackgrass [2, 29]: 50 | Plant response rating, Wheat (winter) [3, 27]: 20 | Plant response rating, Wheat (winter) [3, 28]: 20 | Plant response rating, Wheat (winter) [3, 29]: 50 | Plant response rating, Green foxtail [4, 27]: 60 | Plant response rating, Green foxtail [4, 28]: 100 | Plant response rating, Green foxtail [4, 29]: 100 | Plant response rating, Wheat (winter) [5, 27]: 0 | Plant response rating, Wheat (winter) ([5]; Rate 62 g/ha, 0 to 100 scale): 10 | Plant response rating, Wheat (winter) ([5]; Rate 125 g/ha, 0 to 100 scale, 0 is no effect, 100 is complete control): 0 | Plant response rating, Wild oat [6, 27]: 30 | Plant response rating, Wild oat [6, 28]: 40 | Plant response rating, Wild oat [6, 29]: 30 | Soybean plant response rating [7, 20]: 0 | Soybean plant response rating [7, 21]: 2 | Plant response rating, Soybean [7, 22]: 8 | Soybean plant response rating [7, 23]: 2 | Soybean plant response rating [7, 25]: 2 | Soybean plant response rating [7, 26]: 5 | Wild oats plant response rating [8, 20]: 3 | Wild oats plant response rating [8, 21]: 10 | Plant response rating, Wild oats [8, 22]: 10 | Wild oats plant response rating [8, 23]: 0 | Wild oats plant response rating [8, 25]: 5 | Wild oats plant response rating [8, 26]: 8 | Plant response rating, Barley (winter) [9, 27]: 40 | Plant response rating, Barley (winter) [9, 28]: 50 | Plant response rating, Barley (winter) [9, 29]: 70 | Bedstraw plant response rating [10, 20]: 0 | Bedstraw plant response rating [10, 21]: 9 | Plant response rating, Bedstraw [10, 22]: 10 | Bedstraw plant response rating [10, 23]: 3 | Bedstraw plant response rating [10, 24]: 9 | Bedstraw plant response rating [10, 25]: 2 | Plant response rating (0 to 10; 0 is no effect, 10 is complete control), Bedstraw ([10]; Rate 250 g/ha, Postemergence): 9 | Bedstraw plant response rating [10, 26]: 9 | Plant response rating, I. Ryegrass [11, 27]: 20 | Plant response rating, I. Ryegrass [11, 28]: 40 | Plant response rating, I. Ryegrass [11, 29]: 60

CC(C)N(C(=O)n1oc(=O)n(Cc2ccccn2)c1=O)c1ccc(F)cc1 [Compound 267]
Barnyardgrass plant response rating [1, 12]: 0 | Barnyardgrass plant response rating [1, 13]: 0 | Barnyardgrass plant response rating [1, 14]: 0 | Barnyardgrass plant response rating [1, 15]: 0 | Blackgrass plant response rating (0 to 100 scale) [2]: 50 | Plant response rating, Blackgrass [2, 16]: 60 | Wheat (winter) plant response rating (0 to 100 scale) [3]: 55 | Plant response rating, Wheat (winter) [3, 16]: 70 | Green foxtail plant response rating (0 to 100 scale) [4]: 100 | Plant response rating, Green foxtail [4, 16]: 100 | Wheat (winter) plant response rating [5, 18]: 70 | Plant response rating, Wheat (winter) [5, 19]: 70 | Wild oat plant response rating (0 to 100 scale) [6]: 55 | Plant response rating, Wild oat [6, 16]: 70 | Soybean plant response rating [7, 20]: 0 | Soybean plant response rating [7, 21]: 0 | Plant response rating, Soybean [7, 22]: 0 | Soybean plant response rating [7, 30]: 2 | Soybean plant response rating [7, 25]: 0 | Plant response rating, Soybean [7, 31]: 3 | Soybean plant response rating [7, 26]: 6 | Wild oats plant response rating [8, 20]: 0 | Wild oats plant response rating [8, 21]: 0 | Plant response rating, Wild oats [8, 22]: 2 | Wild oats plant response rating [8, 30]: 0 | Wild oats plant response rating [8, 25]: 0 | Plant response rating, Wild oats [8, 31]: 2 | Wild oats plant response rating [8, 26]: 4 | Barley (winter) plant response rating (0 to 100 scale) [9]: 30 | Plant response rating, Barley (winter) [9, 16]: 70 | Bedstraw plant response rating [10, 20]: 0 | Bedstraw plant response rating [10, 21]: 0 | Plant response rating, Bedstraw [10, 22]: 2 | Bedstraw plant response rating [10, 23]: 0 | Bedstraw plant response rating [10, 30]: 0 | Bedstraw plant response rating [10, 25]: 0 | Plant response rating, Bedstraw [10, 31]: 4 | Bedstraw plant response rating [10, 26]: 7 | I. Ryegrass plant response rating (0 to 100 scale) [11]: 50 | Plant response rating, I. Ryegrass [11, 16]: 50
